Laboratory results published in US8609635B2, “Fused tricyclic silyl compounds and methods of use thereof for the treatment of viral diseases” (priority 2010, dated 2013).
pEC50: −log10 of the molar value.

Columns and labels:
[1] = tested on: HCV replicon gt1a_H77; assay: Cell-based HCV replicon assay (TaqMan), genotype 1a (H77); details: Hepatitis C virus, 72 h, replicon 1a (H77); replicon RNA by TaqMan, day 3
Outline: (§1)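 Replicon cells seeded at 5000 cells/well with compound (10 serial 2-fold dilutions from 250 μM to 1 μM top dose; 0.5% DMSO, 5% FBS) and lysed on day 3. Replicon RNA quantified by multiplex TaqMan RT-PCR (NS5B amplicon, GAPDH control); ΔCT versus concentration fitted to sigmoid dose-response. Chimeras carry patient-isolate NS5A.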

[2] = tested on: HCV replicon gt2a_JFH; assay: Cell-based HCV replicon assay (TaqMan), genotype 2a (JFH); details: Hepatitis C virus, 72 h, replicon 2a (JFH); replicon RNA by TaqMan, day 3
Outline: as §1

[3] = tested on: HCV chimeric replicon with NS5A of genotype 2b (AB03090); assay: Cell-based HCV replicon assay (TaqMan), chimeric replicon genotype 2b (AB03090); details: Hepatitis C virus, 72 h, read-out: HCV replicon EC50 2b (AB03090), chimeric replicon 2b (AB03090); replicon RNA by TaqMan, day 3
Procedure: (§2) Measurement of inhibition by compounds of the present invention was performed using the HCV replicon system. Several different replicons encoding different HCV genotypes or mutations were used. In addition, potency measurements were made using different formats of the replicon assay, including different ways of measurements and different plating formats. See Jan M. Vrolijk et al., A replicons-based bioassay for the measurement of interferons in patients with chronic hepatitis C, 110 J. VIROLOGICAL METHODS 201 (2003); Steven S. Carroll et al., Inhibition of Hepatitis C Virus RNA Replication by 2′-Modified Nucleoside Analogs, 278(14) J. BIOLOGICAL […] 11979 (2003). However, the underlying principles are common to all of these determinations, and are outlined below.
(§3) Compounds of the present invention were assayed for cell-based anti-HCV activity using the following protocol. Replicon cells were seeded at 5000 cells/well in 96-well collagen I-coated Nunc plates in the presence of the test compound. Various concentrations of test compound, typically in 10 serial 2-fold dilutions, were added to the assay mixture, with the starting concentration ranging from 250 μM to 1 μM. The final concentration of DMSO was 0.5%, fetal bovine serum was 5%, in the assay media. Cells were harvested on day 3 by the addition of 1× cell lysis buffer (Ambion cat #8721). The replicon RNA level was measured using real time PCR (TaqMan® assay). The amplicon was located in 5B. The PCR primers were: 5B.2F, […] (SEQ. ID NO. 1); 5B.2R, […] (SEQ. ID NO. 2); the probe sequence was FAM-labeled […] (SEQ. ID NO. 3). GAPDH RNA was used as endogenous control and was amplified in the same reaction as NS5B (multiplex PCR) using primers and VIC-labeled probe recommended by the manufacturer (PE Applied Biosystem). The real-time RT-PCR reactions were run on ABI PRISM 7900HT Sequence Detection System using the following program: 48° C. for 30 minutes, 95° C. for 10 minutes, 40 cycles of 95° C. for 15 sec, 60° C. for 1 minute. The ΔCT values (CT5B-CTGAPDH) were plotted against the concentration of test compound and fitted to the sigmoid dose-response model using XLfit4 (MDL). […] Alternatively, to quantitate the absolute amount of replicon RNA, a standard curve was established by including serially diluted T7 transcripts of replicon RNA in the Taqman assay. All TaqMan® reagents were from PE Applied Biosystems. Such an assay procedure was described in detail in e.g. Malcolm et al., Antimicrobial Agents and Chemotherapy 50: 1013-1020 (2006).
(§4) Wherein gt1a_H77 was prepared as described in Yi et al., J Virol. 2004, 78(15):7904-15; gt1b_con1 was prepared as described in Lohmann et al., Science 1999, 285(5424):110-3; and gt2a_JFH was prepared as described in Kato et al., Gastroenterology. 2003, 125(6):1808-17. Chimeric replicons contain NS5A from patient isolates of genotypes 1a, 1b, 2b, 3a and 4a as indicated.

[4] = tested on: HCV chimeric replicon with NS5A of genotype 4a (DQ41878); assay: Cell-based HCV replicon assay (TaqMan), chimeric replicon genotype 4a (DQ41878); details: Hepatitis C virus, 72 h, read-out: HCV replicon EC50 4a (DQ41878)
Outline: as §1

[5] = tested on: HCV replicon 1a (Y93H) mutant; assay: Cell-based HCV replicon assay (TaqMan), genotype 1a mutant Y93H; details: Hepatitis C virus, 72 h, read-out: HCV replicon EC50 1a (Y93H)
Outline: as §1

[6] = tested on: HCV replicon 1a (L31V) mutant; assay: Cell-based HCV replicon assay (TaqMan), genotype 1a mutant L31V; details: Hepatitis C virus, 72 h, read-out: HCV replicon EC50 1a (L31V)
Procedure: as §2, §3, §4

[7] = Pharmacokinetic analysis in rats; assay type: in vivo, Male Sprague-Dawley rats; details: Rat, dihydrochloride salt, 5 mpk/PO, 2.5 mpk/IV
Procedure: Various pharmacokinetic parameters for compound 56 were measured in rats, dogs and monkeys as described below.
Male Sprague-Dawley rats (Charles River, Co.) were pre-cannulated (femoral artery) in order to facilitate precise blood sampling times, to increase throughput and to reduce the stress on the animals caused by serial bleedings. Following an overnight fast, rats were dosed with the dihydrochloride salt of compound 56 orally at 5 mg/kg as a suspension in 0.4% hydroxylpropyl methylcellulose (HPMC) or intravenously at 2.5 mg/kg as a solution in 20% hydroxypropyl-β-cyclodextrin (20% HPβCD). Blood was collected into heparin-containing tubes serially from each animal at 0.25, 0.5, 1, 2, 4, 6, 8, 24 and 48 hr (PO), and 0.167, 0.25, 0.5, 1, 2, 4, 6, 8, 24 and 48 hr (IV) post-dosing and centrifuged to generate plasma. The plasma samples were stored at […] until analysis.
Collected plasma samples were analyzed for the presence of compound 56 using LC-MS/MS as described below.
The HPLC/API-MS/MS system for the example data consisted of a HPLC pumping system and a auto sampler with the sample tray refrigeration option connected directly to a triple quadrupole mass spectrometer with an API source. Typical HPLC methods for the example data was based on a fast gradient of two solvents: solvent A consisted of 0.1% formic acid in water, and solvent B consisted of 0.1% formic acid in acetonitrile. A fast linear gradient (start at 90% A for 0.2 min, ramp to 95% B from 0.2 to 0.5 min, hold at 95% B […], then ramp back to 90% A from 1.0 to 1.1 min, then hold at, […] from 1.1 to 1.2 min) was used. The flow rate for the HPLC system was set to 1 mL/min throughout the HPLC gradient; the HPLC column was a Halo C18 column (2.7 micron particle size, 50×2.1 mm). The example compounds were analyzed by positive ion atmospheric pressure chemical ionization tandem mass spectrometry (APCI-MS/MS). As a general procedure, selected reaction monitoring (SRM) methods were developed for each compound prior to analysis of the plasma samples. Normally, the individual SRM transitions were based on a fragmentation from the protonated molecule ([MH].) to a characteristic product ion.
Using the methods described above, the following pharmacokinetic parameters were calculated in rats, dogs and monkeys and the results are summarized in the table below.

## COC(=O)N[C@H](C(=O)N1CC(F)(F)C[C@H]1c1ncc(-c2ccc(-c3ccc4c(ccc5nc([C@@H]6C[Si](C)(C)CN6C(=O)[C@@H](NC(=O)OC)C(C)C)[nH]c54)c3)cc2)[nH]1)C(C)C [Compound 56]
[1]
  pEC50: 10.80
[2]
  pEC50: 10.57
[3]
  pEC50: 7.32
[4]
  pEC50: 10.70
[5]
  pEC50: 7.34
[6]
  pEC50: 7.80
[7]
  Effective Half-Life: 7.6 h
  Systemic Clearance: 0.336 L/h/kg
  Volume of Distribution: 3.7 L/kg
[7]; dose-normalized AUC between PO and IV
  Oral Bioavailability: 28%
